{"source": "patent EP4678179A1", "about": "“PHARMACEUTICAL COMPOSITION CONTAINING ACTIVE SULFUR MOLECULE” (Tohoku University, priority 2023, dated 2024)", "key": {"[1]": {"tested_on": "human CD4+ T cells", "assay": "Cell cycle analysis of human naive CD4+ T cells stimulated with CD3/CD28 in the presence or absence of GSSSG", "format": "cell-based", "details": "naive CD4+ T cells from peripheral bloods of healthy individuals; CD3/CD28 stimulation; GSSSG 1 µM; 48 hours; FIG. 10E", "protocol": "Peripheral mononuclear blood cells were isolated using Vacutainer (BD Bioscience), and naive CD4^+ T cells (CD3^+ CD4^+ CD25^- CD45RO^- CD45RA^+) were purified from the isolated mononuclear cells using FACS AriaII (BD Bioscience). The purified naive CD4^+ T cells were seeded in a 96-well plate at 5 × 10^4 cells per well, and stimulated with Dynabeads™ Human T-Activator CD3/CD28 (Thermo Fischer Scientific) in an RPMI medium (10% FCS) in the presence or absence of GSSSG (1 µM) for 48 hours.\nFinally, the involvement of active sulfur in the regulation of the proliferation of human CD4+ T cells was examined through in vitro cell culture. Specifically, naive CD4+ T cells purified from peripheral bloods of healthy individuals were stimulated with CD3/CD28 in the presence and absence of GSSSG to induce the proliferative response, and the cell cycle was analyzed 48 hours after the stimulation. […] Thus, it was shown that CARS2-dependent active sulfur metabolism also suppresses the cell cycle entry also in human CD4+ T cells and limits the proliferation of the same cells."}, "[2]": {"tested_on": "HDM-treated mice", "assay": "HDM-induced mouse asthma model (type 2 airway inflammation), intraperitoneal GSSSG", "format": "in vivo", "protocol": "Asthma model mice were created according to a previous report (Ishii et al., Scandinavian journal of immunology. 2018; 87 (3)). Specifically, as shown in the FIG. 5A, mice were intranasally administered with HDM extract (at the indicated doses in PBS) under isoflurane anesthesia to induce asthma.\nTwenty four (24) hours after the last dose of HDM, the mice were anesthetized and sacrificed by exsanguination. The alveoli were washed three times with 500 µL of 10 mM PBS, and the bronchial alveolar lavage fluid (BALF) was collected. For 5 minutes, […], then the supernatant was stored for biochemical analysis, and the cellular pellet was resuspended in 500 µL of 10 mM PBS. The total number of cells was counted using a Scepter handheld automated cell counter (Millipore), followed by cytospin specimen preparation and staining with Diff-Quick (Sysmex) or Eosinostain-Torii (Torii Pharmaceutical).\nIsolation of cells from mouse lung tissue and FCM were performed according to previous reports (Gomez et al., American journal of respiratory cell and molecular biology. 2015; 52 (3): 349-64., and Yamada et al., American journal of respiratory and critical care medicine. 2011; 183 (10): 1391-401.). For histological examination of lung inflammation, lung sections were stained with hematoxylin and eosin (HE). Lung inflammation was semi-quantified and evaluated according to a previous report.\nIt was investigated whether intraperitoneal administration of GSSSG in vivo suppresses an HDM-induced type 2 airway inflammation. […] Thus, GSSSG has therapeutic potential in CD4 T cell-mediated type 2 inflammatory diseases, including asthma, by organizing TCR signaling."}, "[3]": {"tested_on": "Rag2-/- host mice", "assay": "T cell transfer enteritis (IBD) model: naive CD4+ T cells transferred into Rag2-/- mice, GSSSG administered intraperitoneally", "format": "in vivo", "from_the_text": "CD4^+ T cells were magnetically sorted from splenocytes of young mice (from 8 to 12 weeks old). Then, naive CD4^+ T cells (CD3^+ CD4^+ CD25^- CD44^lo CD62L^hi or CD3^+ CD4^+ Foxp3-RFP^- CD44^lo CD62L^hi) were sorted using FACS AriaII (BD Bioscience) based on fluorescently labeled monoclonal antibodies or reporter fluorescent proteins. In experiments to confirm homeostatic maintenance proliferation, naive CD4^+ T cells were labeled with carboxyfluorescein succinimidyl ester (CFSE) (Thermo Fisher Scientific), and were injected into the tail veins of CD45.1 host mice irradiated with a sublethal dose (5.5 Gy), at 1 × 10^6 cells per mouse 1 day before transfer. In experiments to induce enteritis, wild-type or Cars2^+/- naive CD4^+ T cells were injected into the tail veins of Rag2^-/- mice at 3 × 10^5 cells per mouse. In experiments to evaluate the function of regulatory T cells, Cars2^+/+ naive CD4^+ T cells were co-transferred with regulatory T cells derived from Cars2^+/- Foxp3-RFP reporter mice (1 × 10^5 cells/mouse). In GSSSG administration experiments, GSSSG (400 nmol/mouse) was intraperitoneally administered to the Rag2^-/- host mice every day from the same day as the day when the naive CD4^+ T cells were transferred.\nAt the stage where from 3 to 4 weeks had elapsed after the transfer of the naive T cells, the large intestines of the Rag2^-/- host mice were collected and fixed with 10% formalin. After the fixed samples were embedded in paraffin, 5-µm-thick sections were cut out and subjected to hematoxylin-eosin staining (H & E) and immunostaining with a CD4 monoclonal antibody (mAb) (EPR19514). The histological inflammation score was classified into three groups with reference to a previous report (Biswas et al., Nat Commun 9, 1779 (2018)).\nTherefore, using the same IBD model, wild-type and Cars2+/- naive CD4+ T cells were adoptively transferred to Rag2-/- mice, and the properties of the donor cells and the IBD pathological conditions of the host mice were observed over time. […] Since there was no significant difference in proportion of dead cells between the two groups (FIGS. 4F, 5C, and 5F), the reason for the increase in number of accumulated cytokine-producing Cars2+/- T cells is considered to be enhanced homeostatic maintenance proliferation of the donor cells.\nTo confirm whether CARS2 suppresses the proliferation of enteritis pathogenic T cells via active sulfur, GSSSG, which is a donor of an active sulfur molecule, was administered to Rag2-/- host mice, and as a result, the body weight loss of the individuals transplanted with Cars2+/- CD4+ T cells was suppressed, and the reduction in histological enteritis images was observed (FIGS. 8A to 8C)."}}, "data": [{"smiles": "N[C@@H](CCC(=O)N[C@@H](CSSSC[C@H](NC(=O)CC[C@H](N)C(=O)O)C(=O)NCC(=O)O)C(=O)NCC(=O)O)C(=O)O", "note": "[GSSSG, glutathione trisulfide]", "values": [{"measurement": "cell cycle entry of the naive CD4+ T cells", "setting": "[1]", "value": "significantly suppressed"}, {"measurement": "accumulation of inflammatory cells, particularly eosinophils, in the airways", "setting": "[2]; both Cars2+/- mice and WT mice, HDM-treated, 1 mM GSSSG intraperitoneal, BALF, FIG. 14E", "value": "significantly suppressed"}, {"measurement": "lung inflammation", "setting": "[2]; both HDM-treated Cars2+/- mice and HDM-treated WT mice, GSSSG treatment, HE-stained lung tissue, FIG. 14F", "value": "significantly reduced"}, {"measurement": "goblet cell hyperplasia", "setting": "[2]; both HDM-treated Cars2+/- mice and HDM-treated WT mice, GSSSG treatment, PAS-stained lung tissue, FIG. 14G", "value": "significantly reduced"}, {"measurement": "therapeutic effect", "setting": "[3]; Rag2-/- host mice transfused with wild-type CD4+ T cells, GSSSG 400 nmol/mouse intraperitoneally every day, FIGS. 9A to 9C", "value": "no significant therapeutic effect"}, {"measurement": "body weight loss", "setting": "[3]; Rag2-/- host mice transplanted with Cars2+/- CD4+ T cells, GSSSG 400 nmol/mouse intraperitoneally every day, FIG. 8A", "value": "suppressed"}, {"measurement": "histological enteritis images", "setting": "[3]; Rag2-/- host mice transplanted with Cars2+/- CD4+ T cells, GSSSG 400 nmol/mouse intraperitoneally every day, large intestine, H & E and CD4 immunostaining, FIGS. 8B, 8C", "value": "reduction"}, {"measurement": "enteritis induced by Cars2+/- CD4+ T cells", "setting": "[3]; figure legend of FIG. 8, administration of GSSSG to host mice", "value": "improved"}]}]}
